# Results published in US20010041733A1, “Heterocyclic ester and amide hair growth compositions and uses” (GPI NIL Holdings, Inc., priority 1998, published 2001).
# Experiments:
# FKBP12 = FKBP12 (Homo sapiens, UniProt P62942); experiment: Ki test procedure: inhibition of peptidyl-prolyl isomerase (rotamase) activity, chymotrypsin-coupled assay; assay type: biochemical; conditions: substrate N-succinyl-Ala-Ala-Pro-Phe-p-nitroanilide, read-out: Ki (apparent)
# Text: The compounds used in the inventive methods and pharmaceutical compositions have an affinity for the inhibition of the prolyl peptidyl cis-trans isomerase activity of FKBP may be measured as an indicator of this affinity.
# Inhibition of the peptidyl-prolyl isomerase (rotamase) activity of the compounds used in the inventive methods and pharmaceutical compositions can be evaluated by known methods described in the literature (Harding et al., Nature, […], 341:758-760; Holt et al. J. Am. Chem. Soc., 115:9923-9938). These values are obtained as apparent K1's and are presented for representative compounds in TABLE III.
# The cis-trans isomerization of an alanine-proline bond in a model substrate, N-succinyl-Ala-Ala-Pro-Phe-p-nitroanilide, is monitored spectrophotometrically in a chymotrypsin-coupled assay, which releases para-nitroanilide from the trans form of the substrate. The inhibition of this reaction caused by the addition of different concentrations of inhibitor is determined, and the data is analyzed as a change in first-order rate constant as a function of inhibitor concentration to yield the apparerent K1, values. […]
# The absorbance at 390 nm versus time is monitored for 90 seconds using a spectrophotometer and the rate constants are determined from the absorbance versus time data files.
# C57 black 6 mice [1] = experiment: In vivo hair generation test, Experiment A; conditions: 30 μM topical in 20% propylene glycol, 3 applications, after six weeks
# Text: Care was taken not to nick or cause abrasion to the underlaying dermal layers. The animals were in anagen growth phase, as indicated by the pinkish color of the skin. […] Hair growth was quantitated by the percent of shaved area covered by new hair growth during this time period.
# C57 black 6 mice [2] = experiment: In vivo hair generation test, Experiment B; conditions: one micromole per milliliter topical, three times per week, 14 days after initiation of treatment
# Procedure: Care was taken not to nick or cause abrasion to the underlying dermal layers. The animals were in a […] growth phase when shaved. […] The animals were treated three times per week, and hair growth was evaluated 14 days after initiation of treatment.
# Sequence of FKBP12 (P62942 whole entry): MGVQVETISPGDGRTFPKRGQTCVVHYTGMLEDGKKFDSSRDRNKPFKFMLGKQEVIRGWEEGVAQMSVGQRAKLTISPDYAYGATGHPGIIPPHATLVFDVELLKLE
SMILES,Ki (FKBP12) [nM],other results
"CCC(C)(C)C(=O)C(=O)N1CSC[C@@H]1C(=O)OCCCc1ccccc1 [Compound 1, 3-phenyl-1-propyl (2S)-1-(3,3-dimethyl-1,2-dioxopentyl)-2-(4-thiazolidine)carboxylate]",215,
"CCC(C)(C)C(=O)C(=O)N1CSC[C@@H]1C(=O)OCCCc1cccnc1 [Compound 2, 3-(3-pyridyl)-1-propyl (2S)-1-(3,3-dimethyl-1,2-dioxopentyl)-2-(4-thiazolidine) carboxylate]",638,
CCC(C)(C)C(=O)C(=O)N1CCC[C@H]1C(=O)OCCCc1cccnc1 [GPI 1046],,hair regrowth in the shaved area (C57 black 6 mice [1]): essentially complete hair regrowth
CCC(C)(C)C(=O)C(=O)N1CCS[C@@H]1C(=O)OCCCc1cccnc1 [GPI 1572],,"hair growth (relative hair growth index, FIG. 5) (C57 black 6 mice [2]): dramatic hair growth"
